In ChEMBL document CHEMBL1141493, “Synthesis and structure-activity relationships of heteroaryl substituted-3,4-diamino-3-cyclobut-3-ene-1,2-dione CXCR2/CXCR1 receptor antagonists” (Bioorg Med Chem Lett, 2008) one finds IC50, AUC and Activity data, which are given here for 40 compounds.

Calls of active or inactive are those of the source. The calls are words filed in the database; no cut-off is given here.

The target of data set [1] is T1, C-X-C chemokine receptor type 2 (Homo sapiens, UniProt P25025).
T1 sequence (P25025 whole entry): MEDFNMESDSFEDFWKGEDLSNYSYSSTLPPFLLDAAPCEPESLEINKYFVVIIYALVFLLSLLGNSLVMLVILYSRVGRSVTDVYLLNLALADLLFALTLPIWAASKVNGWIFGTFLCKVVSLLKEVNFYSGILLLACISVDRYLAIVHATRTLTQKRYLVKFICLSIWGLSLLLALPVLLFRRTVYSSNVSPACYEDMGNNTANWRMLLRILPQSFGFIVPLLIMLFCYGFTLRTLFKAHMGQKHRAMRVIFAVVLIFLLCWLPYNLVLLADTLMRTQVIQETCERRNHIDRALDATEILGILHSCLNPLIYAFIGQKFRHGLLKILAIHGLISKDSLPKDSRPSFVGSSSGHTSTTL
Description: Inhibition of CXCR2.

Data set [2] addresses T2, C-X-C chemokine receptor type 1 (Homo sapiens, UniProt P25024).
T2 sequence (P25024 whole entry): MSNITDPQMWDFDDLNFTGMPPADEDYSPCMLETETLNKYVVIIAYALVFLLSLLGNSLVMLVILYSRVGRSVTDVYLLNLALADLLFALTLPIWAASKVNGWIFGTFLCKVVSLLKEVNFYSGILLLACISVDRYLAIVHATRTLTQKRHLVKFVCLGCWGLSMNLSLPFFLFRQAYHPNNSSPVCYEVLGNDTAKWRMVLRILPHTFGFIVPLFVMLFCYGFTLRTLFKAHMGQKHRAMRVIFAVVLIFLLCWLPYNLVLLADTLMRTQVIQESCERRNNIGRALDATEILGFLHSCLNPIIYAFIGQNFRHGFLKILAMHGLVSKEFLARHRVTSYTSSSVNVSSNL
The data set can be described thus: Inhibition of CXCR1.

Data set [3] in a line: AUC in rat at 10 mg/kg, po. Type of data set: ADME, organism-based. Also on record: dose 10 mg/kg, route oral. The note with it: plasma.
For data set [4], the target named is T3, C-X-C chemokine receptor type 1 (Homo sapiens) (UniProt P25024).
T3 sequence (whole entry): T2 sequence (P25024 whole entry)
Description: Inhibition of CXCR1-mediated chemotaxis in Ba/F3 cells expressing human CXCR1 at >10000 nM. The data set is classed as cell-based. The conditions noted are these: BaF3.

For data set [5], the target named is T3, C-X-C chemokine receptor type 1 (Homo sapiens). Description: Inhibition of CXCR1 at >10000 nM.

By IC50 is commonly meant the midpoint of a concentration-inhibition curve. A high value points to lower potency. On to `CCC(Nc1c(Nc2cccc(C(=O)N(C)C)c2O)c(=O)c1=O)c1cc(-c2c(C)noc2C)co1` (stereo not given), for which the values for the IC50 in data set [1] and in data set [2] were 7.6 nM and 345 nM, respectively.

One may read the AUC as the area under the concentration-time curve, a measure of exposure. The low end stands for low exposure, the high end for high exposure. In data set [3], `CC[C@@H](Nc1c(Nc2cccc(C(=O)N(C)C)c2O)c(=O)c1=O)c1cc(C)on1` gave an AUC of 3.7 µM·h. Also, in data set [4], the result was inactive. Also, the values for the IC50 in data set [1] and in data set [2] were 6.3 nM and 171 nM, respectively.

In the case of `CCC(Nc1c(Nc2cccc(C(=O)N(C)C)c2O)c(=O)c1=O)c1cc(-c2ccsc2)co1` (stereo not given), the IC50 worked out at 8.2 nM in data set [1] and 221 nM in data set [2].

Turning to `CCC(Nc1c(Nc2cccc(C(=O)N(C)C)c2O)c(=O)c1=O)c1ccc(Cl)s1` (stereo not given), the IC50 in data set [1] was 6.2 nM; in data set [2] it was 1110 nM.

`CCC(Nc1c(Nc2cccc(C(=O)N(C)C)c2O)c(=O)c1=O)c1ccc(C(F)F)o1` (stereo not given): the IC50 is 6.8 nM in data set [1] and 568 nM in data set [2].

Turning to `CCC(Nc1c(Nc2cccc(C(=O)N(C)C)c2O)c(=O)c1=O)c1ccc(Cl)o1` (stereo not given), the figures for the IC50 in data set [1] and in data set [2] were 4.8 nM and 275 nM, respectively.

With `CCC(Nc1c(Nc2cccc(C(=O)N(C)C)c2O)c(=O)c1=O)c1ccc(C(F)(F)F)o1` (stereo not given), the half-maximal inhibitory concentration (IC50) in data set [1] was determined as 17.2 nM; in data set [2], 6060 nM.

`CCC(Nc1c(Nc2cccc(C(=O)N(C)C)c2O)c(=O)c1=O)c1cc(C)on1` (stereo not given): the IC50 came out at 7.5 nM in data set [1] and 224 nM in data set [2].

As to `CCC(Nc1c(Nc2cccc(C(=O)N(C)C)c2O)c(=O)c1=O)c1ccc(-c2cccc(Cl)c2)o1` (stereo not given), the IC50 in data set [1] came out at 58 nM; in data set [2], 3380 nM.

For `CCC(Nc1c(Nc2cccc(C(=O)N(C)C)c2O)c(=O)c1=O)c1ccco1` (stereo not given), the IC50 is 5 nM in data set [1] and 67 nM in data set [2].

As to `CCC(Nc1c(Nc2cccc(C(=O)N(C)C)c2O)c(=O)c1=O)c1ncco1` (stereo not given), the IC50 stood at 8.6 nM in data set [1] and 795 nM in data set [2].

For the compound `CC[C@@H](Nc1c(Nc2cccc(C(=O)N(C)C)c2O)c(=O)c1=O)c1ccc(Cl)o1`, the half-maximal inhibitory concentration (IC50) in data set [1] amounted to 4.6 nM; in data set [2], 244 nM.

As for `CCC(Nc1c(Nc2cccc(C(=O)N(C)C)c2O)c(=O)c1=O)c1cc(Cl)co1` (stereo not given), the figures for the IC50 in data set [1] and in data set [2] were 4.5 nM and 100 nM, respectively.

On to `CCC(Nc1c(Nc2cccc(C(=O)N(C)C)c2O)c(=O)c1=O)c1nc(C)no1` (stereo not given), for which the figures for the IC50 in data set [1] and in data set [2] were 8.2 nM and 289 nM, respectively.

As for `CCc1ccc(C(CC)Nc2c(Nc3cccc(C(=O)N(C)C)c3O)c(=O)c2=O)o1` (stereo not given), the IC50 in data set [1] stood at 4.1 nM; in data set [2], 854 nM.

Take `CC[C@@H](Nc1c(Nc2cccc(C(=O)N(C)C)c2O)c(=O)c1=O)c1cc(Cl)co1`: in data set [3], the AUC is 21.5 µM·h. In addition, the IC50 in data set [1] amounted to 3.8 nM; in data set [2], 62 nM.

With `CCC(Nc1c(Nc2cccc(C(=O)N(C)C)c2O)c(=O)c1=O)c1ccc(-c2ccccc2Cl)o1` (stereo not given), the IC50 in data set [1] was found to be 49 nM; in data set [2], 4870 nM.

For the compound `CCC(Nc1c(Nc2cccc(C(=O)N(C)C)c2O)c(=O)c1=O)c1cccs1` (stereo not given), the IC50 was determined as 6.2 nM in data set [1] and 179 nM in data set [2].

In data set [3], `CC[C@@H](Nc1c(Nc2cccc(C(=O)N(C)C)c2O)c(=O)c1=O)c1cc(Br)co1` returned an AUC of 33.4 µM·h. Further, the IC50 in data set [1] was determined as 3.5 nM; in data set [2], 55 nM.

Take `CCC(Nc1c(Nc2cccc(C(=O)N(C)C)c2O)c(=O)c1=O)c1cc(-c2ccccc2)co1` (stereo not given): the IC50 in data set [1] was found to be 6.1 nM; in data set [2] it was 150 nM.

Regarding `CCC(Nc1c(Nc2cccc(C(=O)N(C)C)c2O)c(=O)c1=O)c1ccc(-c2ccccc2C(F)(F)F)o1` (stereo not given), the result in data set [5] was inactive. Also, the IC50 in data set [1] turned out to be 150 nM.

Regarding `CCC(Nc1c(Nc2cccc(C(=O)N(C)C)c2O)c(=O)c1=O)c1cc2ccccc2o1` (stereo not given), the 50% inhibitory concentration (IC50) stood at 3.5 nM in data set [1] and 412 nM in data set [2].

As for `CCC(Nc1c(Nc2cccc(C(=O)N(C)C)c2O)c(=O)c1=O)c1occc1Br` (stereo not given), the IC50 stood at 16.5 nM in data set [1] and 1020 nM in data set [2].

On to `CCC(Nc1c(Nc2cccc(C(=O)N(C)C)c2O)c(=O)c1=O)c1ccno1` (stereo not given), for which the IC50 in data set [1] was 9.8 nM; in data set [2] it was 302 nM.

`CCC(Nc1c(Nc2cccc(C(=O)N(C)C)c2O)c(=O)c1=O)c1cocn1` (stereo not given): the IC50 in data set [1] came out at 10.9 nM; in data set [2] it was 805 nM.

`CCC(Nc1c(Nc2cccc(C(=O)N(C)C)c2O)c(=O)c1=O)c1cc(Br)co1` (stereo not given): the figures for the IC50 in data set [1] and in data set [2] were 5 nM and 93 nM, respectively.

`CCC(Nc1c(Nc2cccc(C(=O)N(C)C)c2O)c(=O)c1=O)c1ccc(CN(C)C)o1` (stereo not given): the result in data set [5] was inactive. Further, it took 94 nM to reach half-maximal inhibition in data set [1] (IC50).

As to `CCC(Nc1c(Nc2cccc(C(=O)N(C)C)c2O)c(=O)c1=O)c1ccc(Br)o1` (stereo not given), the IC50 in data set [1] worked out at 4.7 nM; in data set [2], 463 nM.

On to `CCC(Nc1c(Nc2cccc(C(=O)N(C)C)c2O)c(=O)c1=O)c1nccs1` (stereo not given), for which the values for the IC50 in data set [1] and in data set [2] were 9.8 nM and 703 nM, respectively.

On to `CCC(Nc1c(Nc2cccc(C(=O)N(C)C)c2O)c(=O)c1=O)c1cccn1C` (stereo not given), for which, in data set [5], the outcome was inactive. Also, the IC50 in data set [1] was found to be 815 nM.

Take `CCC(Nc1c(Nc2cccc(C(=O)N(C)C)c2O)c(=O)c1=O)c1cc(-c2ccncc2)co1` (stereo not given): the IC50 in data set [1] is 9.5 nM; in data set [2], 526 nM.

Turning to `CC[C@@H](Nc1c(Nc2cccc(C(=O)N(C)C)c2O)c(=O)c1=O)c1ccsc1`, the IC50 in data set [1] turned out to be 3.4 nM; in data set [2], 104 nM.

In the case of `CCC(Nc1c(Nc2cccc(C(=O)N(C)C)c2O)c(=O)c1=O)c1ccc(C(=O)N(C)C)o1` (stereo not given), in data set [5], the outcome was inactive. Besides, in data set [1], the midpoint of inhibition, the IC50, lay at 171 nM.

`CCC(Nc1c(Nc2cccc(C(=O)N(C)C)c2O)c(=O)c1=O)c1ccc(CO)o1` (stereo not given): the figures for the IC50 in data set [1] and in data set [2] were 2.8 nM and 182 nM, respectively.

On to `CCC(Nc1c(Nc2cccc(C(=O)N(C)C)c2O)c(=O)c1=O)c1ccncc1` (stereo not given), for which the values for the IC50 in data set [1] and in data set [2] were 50 nM and 2860 nM, respectively.

Take `CCC(Nc1c(Nc2cccc(C(=O)N(C)C)c2O)c(=O)c1=O)c1ccsc1` (stereo not given): the results for the IC50 in data set [1] and in data set [2] were 5.8 nM and 165 nM, respectively.

Take `CC[C@@H](Nc1c(Nc2cccc(C(=O)N(C)C)c2O)c(=O)c1=O)c1ccccn1`: in data set [4], the result was inactive. For the same compound, the values for the IC50 in data set [1] and in data set [2] were 3.3 nM and 148 nM, respectively.

For the compound `CCC(Nc1c(Nc2cccc(C(=O)N(C)C)c2O)c(=O)c1=O)c1ccoc1` (stereo not given), the IC50 in data set [1] worked out at 8 nM; in data set [2], 812 nM.

With `CCC(Nc1c(Nc2cccc(C(=O)N(C)C)c2O)c(=O)c1=O)c1ccc(-c2cccc(C(F)(F)F)c2)o1` (stereo not given), the IC50 came out at 87 nM in data set [1] and 3430 nM in data set [2].

With `CCC(Nc1c(Nc2cccc(C(=O)N(C)C)c2O)c(=O)c1=O)c1sccc1Cl` (stereo not given), the IC50 in data set [1] is 21 nM; in data set [2], 1370 nM.
